Patent US11052092B2, “N-{[2-(piperidin-1-yl)phenyl](phenyl)methyl}-2-(3-oxo-3,4-dihydro-2H-1,4-benzoxazin-7-yl)acetamide derivatives and related compounds as ROR-gamma modulators for treating autoimmune diseases” (Genfit, priority 2017, dated 2021)

How the values were obtained:
[1] = system: Murine EL-4 lymphoma cell line overexpressing human RORγt; assay: IL-17 secretion from EL4 murine lymphoma; format: cell-based; settings: Mus musculus; human RORγt-transfected EL4 cells, PMA (10 ng/mL) and ionomycin (1 μM), 24 h; read-out: IC50, IL-17 secretion inhibition
Procedure: Murine EL-4 lymphoma cell line overexpressing human RORγt was used in this functional assay to assess compound ability to inhibit IL-17 cytokine secretion.
EL-4 cells are maintained in a standard culture medium RPMI supplemented with 10% fetal calf serum, 1% sodium pyruvate, 1% essential amino acids and 1% antibiotics at 37° C. in a humidified atmosphere of 5% CO02 and 95% air. Culture medium was changed every 2 days. EL4 cells were transfected with a plasmid encoding hRORγt (sequence identical to published sequence NM 001001523). […] Briefly, 1 μg of DNA/1 million cells was served to transfect EL-4 cells. Cell/DNA suspension was transferred into certified cuvette and the electroporation of RORγt plasmid was carried out using appropriate Nucleofector® program.
Cells were seeded in 96 well plates at a density of 150000 cells/I well then treated with compounds of this invention at indicated concentrations and incubated for 24 hours at 37° C. in a humidified atmosphere of 5% C02 and 95% air. EL-4 cells were pretreated with test compounds (RORγ modulators) and stimulated with PMA (10 ng/mL) and ionomycin (1 μM final concentration) in the presence of test compound concentrations for additional 24 h at 37° C. in a humidified atmosphere of 5% C02 and 95% air. Subsequently, supernatants were collected (after centrifugation at 300 g for 10 minutes) to determine the concentrations of IL-17 by HTRF (CisBio, France) or ELISA (R&D Systems Europe) according to the manufacturer's protocols.

human RORγt = molecular target: T1, human RORγt (Homo sapiens, UniProt P51449); assay: RORE Luciferase/RORγt transactivation assay; format: cell-based; settings: COS-7 cells transfected with human IL-17 promoter luciferase reporter and RORγt plasmid; 20 h with compound; read-out: IC50, RORγt activity inhibition
T1 construct: the full-length cDNA of human RORγt; expressed in transfected cells; host or cells: COS-7 (monkey kidney)
T1 sequence (P51449 1-497 isoform P51449-2): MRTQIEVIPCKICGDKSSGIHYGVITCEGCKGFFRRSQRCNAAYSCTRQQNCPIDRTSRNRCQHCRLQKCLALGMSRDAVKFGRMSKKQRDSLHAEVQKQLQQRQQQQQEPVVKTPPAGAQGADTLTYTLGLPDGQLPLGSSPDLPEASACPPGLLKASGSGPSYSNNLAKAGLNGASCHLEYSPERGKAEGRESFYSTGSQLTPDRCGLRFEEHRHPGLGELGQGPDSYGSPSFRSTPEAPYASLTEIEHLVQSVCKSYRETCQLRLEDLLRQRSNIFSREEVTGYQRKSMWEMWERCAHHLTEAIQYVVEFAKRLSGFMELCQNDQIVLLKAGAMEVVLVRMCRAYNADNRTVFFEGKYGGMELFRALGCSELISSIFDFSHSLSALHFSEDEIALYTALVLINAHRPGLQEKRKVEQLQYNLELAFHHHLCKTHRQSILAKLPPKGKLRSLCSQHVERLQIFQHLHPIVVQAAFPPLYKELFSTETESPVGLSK
Method in brief: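 Transactivation read-out: luminescence (Steady-Glo, 30 min at room temperature) from COS-7 cells carrying a RORγt expression plasmid plus a 4.3 kb IL-17 promoter luciferase reporter. Compound exposure was in serum-free DMEM with 0.3% DMSO final. Reported values are IC50 (μM) and Emax (%).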

Row | SMILES | IC50 [1] [µM] | IC50 (human RORγt) [µM] | melting point [°C]
1 | Cc1ccc(C(NC(=O)Cc2ccc3c(CO)c[nH]c3c2)c2ccc(C)o2)c(N2CCCCC2)c1 (centres unmarked) [Cpd. 88, 2-[3-(hydroxymethyl)-1H-indol-6-yl]-N-{[4-methyl-2-(piperidin-1-yl)phenyl](5-methylfuran-2-yl)methyl}acetamide] | < 0.1 | 0.01 to 0.1 | 92
2 | Cc1ccc(C(NC(=O)Cc2ccc3[nH]c(C)nc3c2)c2ccccc2)c(N2CCCCC2)c1 (centres unmarked) [Cpd. 75, 2-(2-methyl-1H-1,3-benzodiazol-5-yl)-N-{[4-methyl-2-(piperidin-1-yl)phenyl](phenyl)methyl}acetamide] | 0.1 to 1 | 0.01 to 0.1 | 137
3 | Cc1ccc(C(NC(=O)Cc2ccc3c(c2)C(C)(O)C(=O)N3)c2ccc(C)o2)c(N2CCCCC2)c1 (centres unmarked) [Cpd. 47, 2-(3-hydroxy-3-methyl-2-oxo-2,3-dihydro-1H-indol-5-yl)-N-{[4-methyl-2-(piperidin-1-yl)phenyl](5-methylfuran-2-yl)methyl}acetamide] | 0.1 to 1 | 0.01 to 0.1 | 112
4 | Cc1ccc(C(NC(=O)Cc2ccc3c(c2)CC(=O)N3)c2ccc(Cl)o2)c(N2CCCCC2)c1 (centres unmarked) [Cpd. 83, N-[(5-chlorofuran-2-yl)[4-methyl-2-(piperidin-1-yl)phenyl]methyl]-2-(2-oxo-2,3-dihydro-1H-indol-5-yl)acetamide] | 0.1 to 1 | 0.01 to 0.1 | 
5 | Cc1ccc(C(NC(=O)Cc2ccc3c(c2)C(C)(O)C(=O)N3C)c2ccc(C)o2)c(N2CCCCC2)c1 (centres unmarked) [Cpd. 39, 2-(3-hydroxy-1,3-dimethyl-2-oxo-2,3-dihydro-1H-indol-5-yl)-N-{[4-methyl-2-(piperidin-1-yl)phenyl](5-methylfuran-2-yl)methyl}acetamide] | 0.1 to 1 | 0.1 to 1 | 
6 | Cc1ccc(C(NC(=O)Cc2ccc3c(c2)OCC(=O)N3)c2ccc(C)o2)c(Br)c1 (centres unmarked) [Cpd. 31, N-[(2-bromo-4-methylphenyl)(5-methylfuran-2-yl)methyl]-2-(3-oxo-3,4-dihydro-2H-1,4-benzoxazin-7-yl)acetamide] | 0.1 to 1 | 0.01 to 0.1 | 

The next lines start with the values.

Row | IC50 [1] [µM] | IC50 (human RORγt) [µM] | melting point [°C] | SMILES
7 | < 0.1 | < 0.01 | 112 | Cc1ccc(C(NC(=O)C2(c3ccc4[nH]cc(CO)c4c3)CC2)c2ccc(C)o2)c(N2CCCCC2)c1 (centres unmarked) [Cpd. 89, 1-[3-(hydroxymethyl)-1H-indol-5-yl]-N-{[4-methyl-2-(piperidin-1-yl)phenyl](5-methylfuran-2-yl)methyl}cyclopropane-1-carboxamide]
8 | 0.1 to 1 | 0.01 to 0.1 | 85 | Cc1ccc(C(NC(=O)Cc2ccc3c(C(=O)CS(C)(=O)=O)c[nH]c3c2)c2ccc(C)o2)c(N2CCCCC2)c1 (centres unmarked) [Cpd. 117, 2-[3-(2-methanesulfonylacetyl)-1H-indol-6-yl]-N-{[4-methyl-2-(piperidin-1-yl)phenyl](5-methylfuran-2-yl)methyl}acetamide]
9 | 0.1 to 1 | 0.01 to 0.1 | 95 | Cc1ccc(C(NC(=O)Cc2ccc3c(ccn3CCC(=O)O)c2)c2ccc(C)o2)c(N2CCCCC2)c1 (centres unmarked) [Cpd. 97, 3-{5-[({[4-methyl-2-(piperidin-1-yl)phenyl](5-methylfuran-2-yl)methyl}carbamoyl)methyl]-1H-indol-1-yl}propanoic acid]
10 | < 0.1 | 0.01 to 0.1 | 88 | Cc1ccc(C(NC(=O)Cc2ccc3c(ccn3C(=O)N3CCOCC3)c2)c2ccc(C)o2)c(N2CCCCC2)c1 (centres unmarked) [Cpd. 116, N-{[4-methyl-2-(piperidin-1-yl)phenyl](5-methylfuran-2-yl)methyl}-2-[1-(morpholine-4-carbonyl)-1H-indol-5-yl]acetamide]
11 | 1 to 10 | 0.1 to 1 |  | Cc1ccc(C(NC(=O)Cc2ccc3[nH]cc(C(=O)CS(C)(=O)=O)c3c2)c2ccc(C)o2)c(Br)c1 (centres unmarked) [Cpd. 104, N-[(2-bromo-4-methylphenyl)(5-methylfuran-2-yl)methyl]-2-[3-(2-methanesulfonylacetyl)-1H-indol-5-yl]acetamide]
